# Laboratory results: the supplement of paper PMC10307832
# Compound: CC[C@@H]1C(=O)N(C)c2cnc(Nc3ccc(C(=O)NC4CCN(C)CC4)cc3OC)nc2N1C1CCCC1 [BI-2536] + O=C(CCCCCCC(=O)Nc1ccccc1)NO [Vorinostat] (partner 1 µM)
# Assay: relative viability (nuclei count vs DMSO), 5 days (fraction); higher = more cells survive
# Conditions: first compound 1 µM
# Outline: (§1)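 Five library-drug doses in √10 steps were combined with a fixed anchor-drug dose, or a single drug was given alone, by pin tool to lung cancer cell lines in 1536-well plates the day after seeding. Nuclei were stained and counted after 5 days. Relative viability is the nuclei count in treated wells over that in vehicle wells, taken as the median of duplicate plates.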
row,Cell Line,relative viability
1,HCC-44,0.278
2,SW 900,0.218
3,NCI-H1648,0.21
4,NCI-H1395,0.356
5,NCI-H1793,0.18
6,NCI-H1944,0.154
7,ABC-1,0.51
8,NCI-H358,0.0847

# Compound: CC[C@@H]1C(=O)N(C)c2cnc(Nc3ccc(C(=O)NC4CCN(C)CC4)cc3OC)nc2N1C1CCCC1 [BI-2536] + CC(C)C[C@H](NC(=O)[C@H](Cc1ccccc1)NC(=O)c1cnccn1)B(O)O [Bortezomib] (partner 0.002 µM)
# Assay: as above
# Conditions: first compound 0.01 µM
# Outline: as §1
row,Cell Line,relative viability
1,NCI-H727,0.807
2,NCI-H1650,0.198
3,EBC-1,0.477
4,NCI-H1703,0.313
5,NCI-H1993,1.2
6,SW 1573,1.12
7,NCI-H838,0.878
8,LCLC-103H,1.05
9,NCI-H520,0.741
10,NCI-H2126,1.19
11,EMC-BAC-2,1.08
12,NCI-H2085,1.05
13,Calu-6,0.871
14,HCC-366,1.09
15,NCI-H1666,0.681
16,NCI-H596,1.09
17,NCI-H2087,0.858
18,H3255,0.824
19,COR-L23,1.08
20,COR-L 105,0.764
21,IA-LM,0.772
22,LOU-NH91,0.506
23,ChaGo-K-1,0.905
24,HCC-44,0.905
25,NCI-H1299,0.985
26,NCI-H1792,0.985
27,NCI-H1563,0.935
28,ABC-1,0.252

# Same assay, conditions: first compound 0.03162 µM
row,Cell Line,relative viability
1,NCI-H727,0.833
2,NCI-H1650,0.195
3,EBC-1,0.46
4,NCI-H1703,0.252
5,NCI-H1993,1
6,SW 1573,1.15
7,NCI-H838,0.824
8,LCLC-103H,1.07
9,NCI-H520,0.321
10,NCI-H2126,1.1
11,EMC-BAC-2,1.11
12,NCI-H2085,1.01
13,Calu-6,0.62
14,HCC-366,1.1
15,NCI-H1666,0.874
16,NCI-H596,1.18
17,NCI-H2087,0.677
18,H3255,0.679
19,COR-L23,0.901
20,COR-L 105,0.761
21,IA-LM,0.623
22,LOU-NH91,0.496
23,ChaGo-K-1,0.852
24,HCC-44,0.885
25,NCI-H1299,1.05
26,NCI-H1792,1
27,NCI-H1563,0.802
28,ABC-1,0.29

# Same assay, conditions: first compound 0.1 µM
row,Cell Line,relative viability
1,NCI-H727,0.656
2,NCI-H1650,0.18
3,EBC-1,0.222
4,NCI-H1703,0.13
5,NCI-H1993,0.536
6,SW 1573,0.967
7,NCI-H838,0.16
8,LCLC-103H,0.813
9,NCI-H2126,1.05
10,EMC-BAC-2,1.06
11,NCI-H2085,0.587
12,Calu-6,0.183
13,HCC-366,0.155
14,NCI-H1666,0.332
15,NCI-H596,0.759
16,NCI-H2087,0.693
17,H3255,0.36
18,COR-L23,0.27
19,COR-L 105,0.344
20,IA-LM,0.0686
21,LOU-NH91,0.458
22,ChaGo-K-1,0.469
23,HCC-44,0.297
24,NCI-H1299,0.981
25,NCI-H1792,1.06
26,NCI-H1563,0.842
27,ABC-1,0.265

# Same assay, conditions: first compound 0.3162 µM
row,Cell Line,relative viability
1,NCI-H727,0.267
2,NCI-H1650,0.18
3,EBC-1,0.217
4,NCI-H1703,0.161
5,NCI-H1993,0.696
6,SW 1573,0.14
7,NCI-H838,0.115
8,LCLC-103H,0.986
9,NCI-H520,0.194
10,NCI-H2126,0.636
11,EMC-BAC-2,0.628
12,NCI-H2085,0.371
13,Calu-6,0.144
14,HCC-366,0.0158
15,NCI-H1666,0.251
16,NCI-H596,0.733
17,NCI-H2087,0.128
18,H3255,0.241
19,COR-L 105,0.245
20,IA-LM,0.0705
21,LOU-NH91,0.287
22,ChaGo-K-1,0.301
23,HCC-44,0.14
24,NCI-H1299,0.419
25,NCI-H1792,0.716
26,NCI-H1563,0.563
27,ABC-1,0.242

# Same assay, conditions: first compound 1 µM
row,Cell Line,relative viability
1,NCI-H727,0.239
2,NCI-H1650,0.171
3,EBC-1,0.175
4,NCI-H1703,0.11
5,NCI-H1993,0.646
6,SW 1573,0.152
7,NCI-H838,0.111
8,LCLC-103H,0.19
9,NCI-H520,0.123
10,NCI-H2126,0.227
11,EMC-BAC-2,0.172
12,NCI-H2085,0.381
13,Calu-6,0.141
14,HCC-366,0.0163
15,NCI-H1666,0.308
16,NCI-H596,0.328
17,NCI-H2087,0.139
18,H3255,0.276
19,COR-L23,0.101
20,COR-L 105,0.237
21,IA-LM,0.0718
22,LOU-NH91,0.334
23,ChaGo-K-1,0.281
24,HCC-44,0.0751
25,NCI-H1299,0.351
26,NCI-H1792,0.147
27,NCI-H1563,0.683
28,ABC-1,0.213

# Compound: CC[C@@H]1C(=O)N(C)c2cnc(Nc3ccc(C(=O)NC4CCN(C)CC4)cc3OC)nc2N1C1CCCC1 [BI-2536] + Cc1nc(Nc2ncc(C(=O)Nc3c(C)cccc3Cl)s2)cc(N2CCN(CCO)CC2)n1 [Dasatinib] (partner 0.075 µM)
# Assay: as above
# Conditions: first compound 0.01 µM
# Outline: as §1
row,Cell Line,relative viability
1,NCI-H522,0.687
2,NCI-H1623,0.485
3,NCI-H727,0.442
4,NCI-H1650,0.341
5,NCI-H1993,0.688
6,SW 1573,0.563
7,NCI-H838,0.281
8,LCLC-103H,0.405
9,NCI-H520,0.164
